This is an account of results in US11925662B2, “Compositions and methods of enhancing anti-tumor response using hybrid neutrophils” (THE TRUSTEES OF THE UNIVERSITY OF PENNSYLVANIA, priority 2015, dated 2024).

For assay [1], the system named is bone marrow neutrophils (BMNs). Kind of assay: Differentiation of BMNs into HLA-DR+CD14+ hybrid neutrophils (flow cytometry). It is filed as cell-based, human. Particulars: for induction of the CD14+HLA-DR+ hybrid phenotype in BMNs: single factor at the low concentrations found in the TCMs. The procedure: Generation of BM-Derived Hybrid and Canonical Neutrophils. To differentiate BMNs into cells that resemble canonical TANs, purified long-lived BMNs were cultured for 7 days with a TCM (50% v/v) collected from a patient's tumor digest where a large number of hybrid TANs were previously unable to be identified by flow cytometry. […] Alternatively, hybrid-neutrophils were differentiated from BMNs with low doses IFN-γ (50 pg/ml) and GM-CSF (50 pg/ml) for 7 days. If it was observed that the formation of hybrid BMNs was less than 80% the HLA-DR+CD14+ hybrid cells from TCM treated BMNs were enriched by positive selection using magnetic beads coated with anti-HLA-DR antibodies or by flow cytometric cell sorting. The proliferation of BMNs during the differentiation was assessed by flow cytometry using BrdU Flow Kit (BD Pharmingen). BMNs were exposed to bromo-deoxyuridine for 6 hours.
To test the effect of hypoxia on hybrid neutrophil formation, BMNs were cultured for 6 days under normoxic and hypoxic culture conditions maintained in a 37° C. incubator containing 5% CO2, and either atmospheric 21% O2 or 5% O2 condition (Hypoxia Incubator Chamber, Stemcell Techology). BMNs were also cultured in the presence of hybrid-inducing TCM and cobalt chloride (25 μM) (MP Biomedicals LLC), an agent that induces the hypoxia-inducible factor-1α, the main transcriptional factor activated in hypoxic conditions.
Flow Cytometry. Flow cytometric analysis was performed according to standard protocols. Negative gating was based on a fluorescence minus one (FMO) strategy. To exclude dead cells from analysis, cells were stained with the Fixable Viability Dye eFluor® 450 (ebioscience), LIVE/DEAD® fixable dead cell stains (Molecular probes, Life Technologies), or Zombie Yellow™ Fixable Viability dye (Biolegend). To distinguish early-stage apoptotic and late-stage apoptotic/necrotic cells, cells were first stained with Fixable Viability Dye eFluor® 660 (eBioscience). Then cells were washed with the AnnexinV-Binding Buffer and stained with anti-AnnexinV Abs (FITC) in the AnnexinV-Binding Buffer for 10 min at RT. Cells were washed and analyzed by flow cytometry.
(§1) For phenotypic and functional analysis PBNs, BMNs, and TANs were gated on live CD11b^+CD15^hiCD66b^+ cells. […] All data were acquired using the BD FACSCalibur or BD LSRFortessa™ (BD Bioscience) flow cytometers and analyzed using FlowJo software (TreeStar Inc.).
Background: Flow cytometry measures light scatter and fluorescence of single cells or particles in a stream.

Another assay deals with PD-L1. The assay is described as follows: PD-L1 expression on HLA-DR+ BMNs (flow cytometry). In kind it is cell-based, human. Particulars: IFN-γ at more than 1 ng/ml, with GM-CSF 50 pg/ml.
Excerpt: FIGS. 16A-16F are a series of graphs showing tumor-derived IFN-γ and GM-SCF synergistically differentiate immature neutrophils into a subset of APC-like hybrid neutrophils. […] FIGS. 16E-16F show levels of IFN-γ (FIG. 16E) and GM-CSF (FIG. 16F) in supernatants collected from the cell culture of small-sized tumor digests where APC-like hybrid TANs were or were not previously detected (set-off was >10% among all TANs) (line represents mean±SEM, n=10, Mann-Whitney test for unpaired data). Lower panels represent the correlation between the absolute levels of IFN-γ and GM-CSF in the TCM, with the frequency of hybrid neutrophils in each tumor shown in the upper graphs. Non-parametric Spearman test was used to determine the degree of correlation. Representative dot plots from one of five experiments are shown in (FIG. 16A-16D).
as §1

The next assay concerns human Ikaros proteins. As to conditions: literature (Kronke et al., 2014); cited from earlier work.

In the case of `[Cl][Co][Cl]` [cobalt chloride], the “development of hybrid CD14+HLA-DR+ neutrophils” value in assay [1] (with hybrid-inducing TCM, cobalt chloride 25 μM (hypoxia-simulating), 6 days) is listed as “profoundly inhibited”.

Consider “IFN-γ: Human recombinant IFN-γ purchased from PeproTech”, for which the “expression of PD-L1 on the HLA-DR+ BMNs” value in the assay with PD-L1 was “gradually induced the expression of PD-L1”. For the same compound, the “induction of the CD14+HLA-DR+ hybrid phenotype in BMNs” value in assay [1] is “able to induce the phenotype, although in a relatively low percentage of cells”. “GM-CSF: Human recombinant GM-CSF purchased from PeproTech”: the “induction of the CD14+HLA-DR+ hybrid phenotype in BMNs” value in assay [1] is “able to induce the phenotype, although in a relatively low percentage of cells”. Regarding `Nc1cccc2c1CN(C1CCC(=O)NC1=O)C2=O` (stereo not drawn) [lenalidomide], the “effect on Ikaros proteins” value in the assay on human Ikaros proteins is “causes proteasomal degradation of the human Ikaros proteins”. The “development of HLA-DR+CD14+ hybrid neutrophils” value in assay [1] (lenalidomide added to BM neutrophils treated with hybrid-inducing TCM (30% v/v), 6 days) is “dramatically facilitated”.
